Results reported in ChEMBL document CHEMBL4619824, “Identification of Novel Rho-Kinase-II Inhibitors with Vasodilatory Activity” (ACS Med Chem Lett, 2020).

Biological target: Rho-associated protein kinase 2 (Homo sapiens, UniProt O75116)
Assay: Inhibition of ROCK2 (unknown origin) assessed as phosphorylation of MYPT1 using Tetramethylbenzidine as substrate in presence of ATP

Sequence of Rho-associated protein kinase 2 (O75116 whole entry): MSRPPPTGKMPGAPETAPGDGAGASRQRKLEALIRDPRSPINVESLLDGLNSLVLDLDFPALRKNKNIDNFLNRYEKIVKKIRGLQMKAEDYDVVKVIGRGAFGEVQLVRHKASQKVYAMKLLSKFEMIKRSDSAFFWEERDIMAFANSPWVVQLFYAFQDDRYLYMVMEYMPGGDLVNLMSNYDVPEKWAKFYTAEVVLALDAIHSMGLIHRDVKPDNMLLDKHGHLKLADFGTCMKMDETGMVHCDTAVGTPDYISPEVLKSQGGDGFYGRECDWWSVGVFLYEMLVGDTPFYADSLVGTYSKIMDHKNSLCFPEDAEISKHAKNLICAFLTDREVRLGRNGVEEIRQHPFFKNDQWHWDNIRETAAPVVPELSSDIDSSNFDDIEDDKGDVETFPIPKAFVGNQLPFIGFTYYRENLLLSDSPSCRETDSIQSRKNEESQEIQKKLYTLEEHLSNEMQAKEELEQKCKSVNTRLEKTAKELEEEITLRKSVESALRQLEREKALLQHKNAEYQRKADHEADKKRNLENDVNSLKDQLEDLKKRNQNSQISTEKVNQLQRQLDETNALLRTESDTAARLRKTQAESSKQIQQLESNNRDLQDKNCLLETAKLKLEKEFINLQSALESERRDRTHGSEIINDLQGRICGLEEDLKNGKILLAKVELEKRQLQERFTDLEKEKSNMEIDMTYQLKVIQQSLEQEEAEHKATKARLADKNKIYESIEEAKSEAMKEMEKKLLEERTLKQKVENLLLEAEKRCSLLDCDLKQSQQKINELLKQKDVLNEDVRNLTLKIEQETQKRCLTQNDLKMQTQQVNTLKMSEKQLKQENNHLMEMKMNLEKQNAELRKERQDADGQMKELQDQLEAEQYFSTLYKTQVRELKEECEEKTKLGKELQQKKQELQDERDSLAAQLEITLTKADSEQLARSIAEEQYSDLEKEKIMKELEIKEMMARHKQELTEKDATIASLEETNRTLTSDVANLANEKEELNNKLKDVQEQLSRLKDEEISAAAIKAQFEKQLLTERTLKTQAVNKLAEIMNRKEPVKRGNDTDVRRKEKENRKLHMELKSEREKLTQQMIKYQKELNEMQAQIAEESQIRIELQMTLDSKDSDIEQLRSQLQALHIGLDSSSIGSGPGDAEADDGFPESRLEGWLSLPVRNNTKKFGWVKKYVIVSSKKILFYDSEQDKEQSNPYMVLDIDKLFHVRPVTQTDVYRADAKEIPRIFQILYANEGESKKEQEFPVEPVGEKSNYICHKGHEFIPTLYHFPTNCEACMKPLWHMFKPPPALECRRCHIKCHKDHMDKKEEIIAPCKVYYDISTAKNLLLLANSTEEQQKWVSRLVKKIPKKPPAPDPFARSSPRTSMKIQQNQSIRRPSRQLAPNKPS

| IC50 [nM] | SMILES |
| --- | --- |
| 8.02 | CCC(O)CNCc1ccnc2ccc(OC)cc12 (stereo not drawn) |
| 8.4 | COCSC(C)CCSCCO (stereo not drawn) |
| 9.01 | COC(=O)c1ccc(N(C)C(C(=O)c2ccccc2)c2ccccc2)cc1 (stereo not drawn) |
